Experimental data taken from patent publication US20230338529A1, “COMPOSITIONS FOR ALTERING A MICROGLIAL CELL, AND METHODS OF USE THEREFORE” (The Children's Medical Center Corporation, priority 2020, published 2023).

Columns and labels:
[1] = tested on: neonatal spinal cord lesion after P2 crush; experiment: P2 spinal cord crush with microglia depletion: bridge formation, wound healing and axon regrowth by immunostaining; type: in vivo, mice
Procedure: Newborn pups (P2/P7) were anesthetized by isoflurane. A laminectomy was performed at T10 until the spinal cord was exposed completely from side-to-side. The spinal cord was then fully crushed for 2 seconds with forceps with a width of 0.1 mm in the last 5 mm of tips. The muscles and skin were sutured in layers with 6-0 sutures. EMLA topical cream was used for post-surgery analgesia. Animals then were warmed up and kept in a box containing the bedding from the original cage for at least 30 minutes. After that, the closed surgical site was rubbed with the feces from the mom using a Q-tip and then returned to the mom. Feeding was closely monitored in the first week after surgery. Nutra-Gel diets (Bio-Serv) or breeder chow diets were provided to avoid cannibalism. […] In case of bladder dysfunction, bladder emptying was performed once a day until bladder function was restored.
(§1) Mice were given a lethal dose of anesthesia and transcardially perfused with PBS followed by 4% paraformaldehyde (PFA). PFA fixed tissues were incubated in 30% sucrose in PBS for 3 days at 4° C., embedded in OCT (Tissue-Tek), frozen in a dry ice/ethanol bath, and stored at -80° C. Transverse and sagittal sections were cut on a cryostat at 30 µm thick and stored at -20° C. until processed. Before staining, sections were warmed to room temperature and dried on a 37° C. slide warmer for 2 h. Sections then were treated with a blocking solution containing 10% normal donkey serum and 0.5% Triton-100 for 2 hours at room temperature. The primary antibodies used were: rabbit/goat anti-5-HT [Immunostar (20080/20079), 1: 5,000]; rabbit anti-GFAP [DAKO (Z0334), 1:600]; rat anti-GFAP [Thermo Fisher (13-0300), 1:600]; rabbit anti-P2Y12 [AnaSpec (AS-55043A), 1:200]; rat anti-CD68 [Bio-Rad (MCA1957), 1:600]; rabbit anti-Fibronectin [Millipore (AB2033), 1:200]; rabbit anti- Collagen I [Abcam (ab21286), 1:200]; chicken anti-GFP [Abcam (ab13970), 1:400]; goat anti-SPP1 [R&D (AF808), 1:400]; mouse anti-Ly6G/Ly6C [R&D (MAB1037), 1:200]; mouse anti-CSPG [Sigma-Aldrich (C8035), 1:200]; rabbit anti-CSPG [Sigma-Aldrich (L9393), 1:500]; rabbit anti-RFP [Abcam (ab34771), 1:400]. Secondary antibodies included: Alexa Fluor 488-conjugated donkey anti chicken/rabbit; Alexa Fluor 555-conjugated donkey anti goat/rabbit/mouse and Dylight 650-conjugated donkey anti rat (all from Invitrogen). Spinal cord transverse and sagittal sections were imaged with a confocal laser-scanning microscope (Zeiss 700 or Zeiss 710). Figures showing large longitudinal spinal cord section were acquired using Zeiss 710 with image stitching and/or stack software.
The lesion site was defined and traced using Collagen I, Fibronectin, GFAP, P2Y12, CD68, CD31, CSPG, Laminin or Ly6G/Ly6C staining. Mice were perfused separately at 3, 7 or 14 days after spinal cord crush as described above to visualize lesion site. Cell nuclei were stained by incubation with DAPI for 30 seconds. Immunostaining intensity in the lesion site (100 µm width region in the epicenter) was measured using ImageJ software and normalized to the intact (proximal) region of the spinal cord.
To quantify the regenerating/late-arriving 5-HT/CST axons after spinal cord crush, sagittal sections through the lesion were stained with antibodies against 5-HT or RFP. Images of 5-6 sections for each animal were taken under a 10X objective and used for quantification. A series of rectangular segments 100 µm wide and 400 µm high covering the dorsal-ventral aspect of the cord were superimposed onto the sagittal sections, starting from lesion center up to a defined distance caudal. After subtracting the background, the pixel value of each segment was normalized by dividing with the rostral segment (1 mm rostral). The results were presented as a ratio at different distances (axons density index).
To deplete microglia in vivo, adult mice were given the CSF1R inhibitor PLX3397 mixed into AIN-76A standard chow (Research Diets). […]

microglia = experiment: Microglia depletion in vivo with PLX3397, P2Y12-stained spinal cord; set-up: species or system mice; conditions: 7 days after PLX3397 treatment; P2Y12 staining
Procedure: as §1, with “Secondary antibodies included: Alexa Fluor 488-conjugated donkey anti chicken/rabbit; Alexa Fluor 555-conjugated donkey anti goat/rabbit/mouse and Dylight 650-conjugated donkey anti rat (all from Invitrogen). Spinal cord transverse and sagittal sections were imaged with a confocal laser-scanning microscope (Zeiss 700 or Zeiss 710). Figures showing large longitudinal spinal cord section were acquired using Zeiss 710 with image stitching and/or stack software.” left out

FC(F)(F)c1ccc(CNc2ccc(Cc3c[nH]c4ncc(Cl)cc34)cn2)cn1 [PLX3397]
bridge formation (fibronectin, CD68 staining) ([1]; P2 crush, 3 dpi): defects of bridge formation
wound healing and axon regeneration after neonatal crush (5-HT, GFAP staining) ([1]; P2 crush, 7 dpi): impairs wound healing and axon regeneration
GFAP+ reactive astrocytes in the lesion ([1]; P2 crush, 14 dpi): strong GFAP+ reactive astrocytes accumulating in the epicenter
accumulation of basal lamina components (CSPG, laminin) ([1]; P2 crush, 14 dpi): limited accumulations
axon growth at the lesion (5-HT) ([1]; P2 crush, 14 dpi): majority of axons stalled at the lesion epicenter
blood vessels in the lesion (CD31) ([1]; P2 crush, 14 dpi): blood vessels were absent
bridge formation between the two severed stumps ([1]; P2 injury model, 3 or 7 dpi): impaired bridge formation
microglia depletion in neonatal spinal cord (microglia): most microglia were depleted
